# Measurements reported in paper PMC11045757, “Group 3 medulloblastoma transcriptional networks collapse under domain specific EP300/CBP inhibition” (Nature Communications, 2024).
# Test system: 460 barcoded cancer cell lines
# Experiment: PRISM pooled barcoded cancer cell line growth screen, 10-point dose-response, 5 days, AUC
# Assay type: cell-based
# Parameters: scale not given here
# From the text: Several small molecule inhibitors of distinct protein domains of EP300/CBP are available, though the majority target the histone acetyltransferase domain (HAT) or bromodomain (BRD)[5],[10],[21],[22]. […] We used these tools to investigate the relative contribution of the EP300/CBP BRD or HAT domain to tumor cell growth (Fig. 1a). To do so, we performed 10-point, dose-response growth assays using mixed pools of 460 barcoded cancer cell lines, over five days of treatment in vitro[33],[34]. Growth was measured using an area-under-the-curve (AUC) approach (Supplementary Table 1, Supplementary Fig. 1a). […] Given potential differences in compound penetration and solubility, and to compare the relative cell line and tumor-specific effects of these two compounds in assays performed non-simultaneously, we performed a median normalization of each dataset (Supplementary Table 2).
compound,measurement,setting,value
CNC(=O)Nc1ccc2c(c1)CCC21OC(=O)N(CC(=O)N(Cc2ccc(F)cc2)C(C)C(F)(F)F)C1=O (stereo not shown) [Compound A485],AUC,"HCC1419, Breast Cancer",0.6161
same,AUC,"HCC1428, Breast Cancer",0.6381
same,AUC,"HCC1438, Lung Cancer",0.9014
same,AUC,"HCC1806, Breast Cancer",0.8548
same,AUC,"HCC1937, Breast Cancer",0.6971
same,AUC,"HCC2108, Lung Cancer",1
same,AUC,"HCC4006, Lung Cancer",0.7024
same,AUC,"HCT116, Colon/Colorectal Cancer",0.9205
same,AUC,"HDMYZ, Lymphoma",1
same,AUC,"HDQP1, Breast Cancer",0.7294
same,AUC,"HEC1B, Endometrial/Uterine Cancer",0.8662
same,AUC,"HEC6, Endometrial/Uterine Cancer",0.9741
same,AUC,"HEC50B, Endometrial/Uterine Cancer",1
same,AUC,"HEL9217, AML",0.6119
same,AUC,"HEL, AML",0.5914
same,AUC,"HEP3B217, Liver Cancer",0.7234
same,AUC,"HEPG2, Liver Cancer",0.8554
same,AUC,"HEYA8, Ovarian Cancer",0.9784
same,AUC,"HGC27, Gastric Cancer",0.9226
same,AUC,"HH, Lymphoma",0.7764
same,AUC,"HOS, Osteosarcoma",0.9517
same,AUC,"HPBALL, T-acute leukemia",0.8767
same,AUC,"HS294T, Melanoma",0.8326
same,AUC,"HS766T, Pancreatic Cancer",0.7648
same,AUC,"HSC2, Head and Neck Cancer",0.6896
same,AUC,"HSC3, Head and Neck Cancer",0.8176
same,AUC,"HT29, Colon/Colorectal Cancer",0.7629
same,AUC,"HT115, Colon/Colorectal Cancer",1
same,AUC,"HT144, Melanoma",0.8574
same,AUC,"HT1197, Bladder Cancer",0.9829
same,AUC,"HT, B-cell Lymphoma",0.6247
same,AUC,"HUCCT1, Bile Duct Cancer",0.8158
same,AUC,"HUG1N, Gastric Cancer",0.7448
same,AUC,"HUH1, Liver Cancer",0.7158
same,AUC,"HUH7, Liver Cancer",1
same,AUC,"HUH28, Bile Duct Cancer",0.821
same,AUC,"HUPT3, Pancreatic Cancer",0.6895
same,AUC,"HUPT4, Pancreatic Cancer",0.6862
same,AUC,"HUT78, Lymphoma",0.9441
same,AUC,"IALM, Lung Cancer",0.6559
same,AUC,"IGR37, Melanoma",0.6843
same,AUC,"IGROV1, Ovarian Cancer",0.8359
same,AUC,"IM95, Gastric Cancer",0.7117
same,AUC,"IPC298, Melanoma",0.8033
same,AUC,"ISHIKAWAHERAKLIO02ER, Endometrial/Uterine Cancer",0.9178
same,AUC,"ISTMES1, Lung Cancer",0.7574
same,AUC,"J82, Bladder Cancer",0.8707
same,AUC,"JEKO1, Lymphoma",0.7073
same,AUC,"JHH1, Liver Cancer",0.7161
same,AUC,"JHH4, Liver Cancer",0.849
same,AUC,"JHH5, Liver Cancer",0.5701
same,AUC,"JHH7, Liver Cancer",0.6779
same,AUC,"JHOC5, Ovarian Cancer",0.8969
same,AUC,"JHUEM7, Endometrial/Uterine Cancer",1
same,AUC,"JVM3, B-cell Leukemia",0.6743
same,AUC,"K029AX, Melanoma",0.7933
same,AUC,"KALS1, Glioblastoma",0.6866
same,AUC,"KARPAS620, Myeloma",0.9002
same,AUC,"KATOIII, Gastric Cancer",0.6951
same,AUC,"KCL22, CML",0.6275
same,AUC,"KD, Rhabdoid",0.6425
same,AUC,"KE37, T-acute leukemia",0.6716
same,AUC,"KE39, Gastric Cancer",0.7203
same,AUC,"KELLY, Neuroblastoma",0.5242
same,AUC,"KMBC2, Bladder Cancer",0.7261
same,AUC,"KMS11, Myeloma",0.7944
same,AUC,"KMS12BM, Myeloma",0.9973
same,AUC,"KMS18, Myeloma",0.7657
same,AUC,"KMS21BM, Myeloma",0.9338
same,AUC,"KMS28BM, Myeloma",0.817
same,AUC,"KMS34, Myeloma",0.8682
same,AUC,"KNS42, Glioblastoma",0.8304
same,AUC,"KNS60, Glioblastoma",0.7072
same,AUC,"KNS62, Lung Cancer",0.8264
same,AUC,"KP3, Pancreatic Cancer",0.9118
same,AUC,"KPNYN, Neuroblastoma",0.9338
same,AUC,"KS1, Glioma",0.6653
same,AUC,"KU1919, Bladder Cancer",0.6431
same,AUC,"KYM1, Rhabdoid",0.5622
same,AUC,"KYSE30, Esophageal Cancer",0.6256
same,AUC,"KYSE150, Esophageal Cancer",0.8681
same,AUC,"KYSE410, Esophageal Cancer",0.9564
same,AUC,"KYSE510, Esophageal Cancer",0.7247
same,AUC,"KYSE520, Esophageal Cancer",0.7055
same,AUC,"LAMA84, CML",0.6928
same,AUC,"LC1SQSF, Lung Cancer",0.7027
same,AUC,"LCLC103H, Lung Cancer",0.9264
same,AUC,"LI7, Liver Cancer",0.7203
same,AUC,"LK2, Lung Cancer",0.847
same,AUC,"LMSU, Gastric Cancer",0.7223
same,AUC,"LN18, Glioblastoma",0.7097
same,AUC,"LNCAPCLONEFGC, Prostate Cancer",0.6119
same,AUC,"LOUNH91, Lung Cancer",0.9465
same,AUC,"LOVO, Colon/Colorectal Cancer",0.7392
same,AUC,"LOXIMVI, Melanoma",0.8926
same,AUC,"LS180, Colon/Colorectal Cancer",0.7453
same,AUC,"LS411N, Colon/Colorectal Cancer",0.8492
same,AUC,"LS1034, Colon/Colorectal Cancer",0.4819
same,AUC,"LUDLU1, Lung Cancer",0.9399
same,AUC,"LXF289, Lung Cancer",0.6887
same,AUC,"M059K, Glioblastoma",0.8677
same,AUC,"MALME3M, Melanoma",0.6048
same,AUC,"MC116, B-cell Lymphoma",0.8821
same,AUC,"MCAS, Ovarian Cancer",0.7202
same,AUC,"MCF7, Breast Cancer",0.7287
same,AUC,"MDAMB175VII, Breast Cancer",0.9247
same,AUC,"MDAMB231, Breast Cancer",0.7703
same,AUC,"MDAMB361, Breast Cancer",0.7016
same,AUC,"MDAMB436, Breast Cancer",0.9544
same,AUC,"MDAMB453, Breast Cancer",0.5182
same,AUC,"MDAMB468, Breast Cancer",1
same,AUC,"MDST8, Colon/Colorectal Cancer",0.8223
same,AUC,"MELHO, Melanoma",0.7944
same,AUC,"MESSA, Uterine Sarcoma",0.7132
same,AUC,"MFE280, Endometrial/Uterine Cancer",0.7775
